# According to patent US6994551B2, “Stable self-etching primer and adhesive bonding resin compositions, systems, and methods” (Bisco, Inc., priority 2002, dated 2006):
# Where two headings read alike, the source gives them in different places.
# Procedure: Several experiments were performed to evaluate the solubility of Bis-MEP in various solvent systems.
smiles,measurement,setting,value
"C=C(C)C(=O)OCCOP(=O)(O)OCCOC(=O)C(=C)C [Bis-MEP, Bis-[2-(methacryloyloxy)ethyl]phosphate]",appearance of mixture,0.67 weight percent in water,did not dissolve
same,appearance of mixture,2 weight percent mixture in water,did not dissolve
same,appearance of mixture,10 weight percent in water (no ethanol),not homogeneous
same,appearance of mixture,"14.72 weight percent in ethanol 34.40 / water 50.88 weight percent, room temperature",clear solution
same,appearance of mixture,20 weight percent in water (no ethanol),not homogeneous
